In brackets after ≈: the same amount, converted by molar mass. Where a SMILES comes first, the peptide text is derived from it. [ ]: non-standard residue; d: D form. The star is where a group is joined. JQ1acid = Cc1sc2c(c1C)C(c1ccc(Cl)cc1)=N[C@@H](CC(=O)*)c1nnc(C)n1-2; NHBn(4-(4-Me-thiazol-5-yl)) = Cc1ncsc1-c1ccc(CN*)cc1; Hyp = O=C(O)[C@@H]1C[C@@H](O)CN1; Tle = CC(C)(C)[C@H](N)C(=O)O; Sar = CNCC(=O)O
Key:
[1] = Thermodynamic aqueous solubility; format: physicochemical; details: 2 h
Experimental: Saturated solutions were prepared by dissolving the tested compounds in 0.1 M phosphate-buffered saline (pH = 7.4) or 0.01 N HCl solutions and sonicated for 30 s. After equilibration on an orbital shaker at 25 °C for 2 h, the solutions were centrifuged at 13 000 rpm for 5 min and filtered through a 0.2 μm regenerated cellulose (RC) syringe filter. A 400 μL aliquot of each filtrate was diluted with 100 μL of acetonitrile and analyzed by LC-UV. When the measured peak area was out of the calibration range (5–100 μM), the sample was further diluted in water–acetonitrile 1:1 mixture.

BRD4 = target: T1, BRD4 (Homo sapiens, UniProt O60885); test: BRD4 degradation by Western blot analysis in MDA-MB-231 cells; format: cell-based; details: for BRD4 degradation in time-course experiments (in words) / Densitometry (% of control), BRD4-immunoreactive band relative to DMSO vehicle: 1 μM; for BRD4 degradation in time-course experiments (in words): 4 up to 24 h
T1 construct: endogenous in cells; host or cells: MDA-MB-231
Experimental: In Vitro Biological Validation of PROTACs and Preliminary Assessment of Thermodynamic Aqueous Solubility and Metabolic Stability of Selected BRD4-Degrading PROTACs. With the aim of proving the utility of our platform and the compatibility of the substructures accessible by the MCR strategy with a proximity-based degradation, the ability of our PROTAC candidates to effectively act as BRD4 degraders was tested in the human breast cancer cell line MDA-MB-231, known to express detectable levels of this protein.
The human breast adenocarcinoma MDA-MB-231 cell line was cultured in DMEM (Sigma-Aldrich) supplemented with 10% fetal bovine serum (FBS), 1% glutamine, and 1% penicillin/streptomycin. For Western blot analysis, […] cells/well were plated into 12-well plates containing DMEM complete growth medium, to be treated with the synthesized compounds, at the indicated concentrations, for different time lengths. After treatments, cells were scraped and lysed to obtain protein extract using RIPA lysis buffer supplemented with protease (PIC, Merck-Millipore) and phosphatase inhibitors (NaF 1 M, Na3VO4 1 M, PMSF […], Sigma-Aldrich). Cells lysates were centrifuged at 13 000 rpm for 10 min at 4 °C to remove membranes and insoluble fractions. Protein quantification of the supernatant fraction was performed with Braford protein assay (Sigma-Aldrich). […] aliquots of protein extracts were used for 12% SDS-PAGE. After transfer into nitrocellulose membranes, BRD4 and tubulin protein levels were evaluated by immunoblotting using a rabbit polyclonal anti-BRD4 (Bethyl Laboratories) and a mouse monoclonal α-tubulin (Sigma-Aldrich) IgG as primary antibodies and an antirabbit or antimouse HRP-conjugated secondary antibody (Bio-Rad Laboratories). Protein levels were detected by chemiluminescent conversion of the HRP substrate LumiGLO (Thermo Fisher Scientific) using the ChemiDoc imaging system (Bio-Rad). Band densitometry was assessed, normalized to α-tubulin immunoreactive bands, and reported as percentage of the 0.3% DMSO control lane.

[2] = 0.01 N HCl solution, HCl 0.01 N, pH 2.0, 25 °C
[3] = phosphate-buffered saline, PBS 0.1 M, pH 7.4, 25 °C

Row | Structure (SMILES) | solubility thermodynamic at 2 h [1, 2] [µM] | solubility thermodynamic at 2 h [1, 3] [µM] | melting point | dose-response of BRD4 degradation (in words) (BRD4; 100 nM to 10 μM, 8 h, MDA-MB-231 cells) | effect of cotreatment with proteasome inhibitor bortezomib on BRD4 degradation (BRD4; 1 μM compound + 5 nM bortezomib, 8 h) | BRD4 degradation in time-course experiments (in words) (BRD4; MDA-MB-231 cells) | DC50 (BRD4; 8 h treatment, MDA-MB-231 cells, from Western blot densitometry) [µM] | concentration of maximal BRD4 degradation (BRD4; dose-response 100 nM to 10 μM, 8 h, MDA-MB-231 cells) [nM] | Densitometry (% of control), BRD4-immunoreactive band relative to DMSO vehicle (BRD4; 4 h, MDA-MB-231 cells) | Densitometry (% of control), BRD4-immunoreactive band relative to DMSO vehicle (BRD4; 8 h, MDA-MB-231 cells) | Densitometry (% of control), BRD4-immunoreactive band relative to DMSO vehicle (BRD4; 16 h, MDA-MB-231 cells) | Densitometry (% of control), BRD4-immunoreactive band relative to DMSO vehicle (BRD4; 24 h, MDA-MB-231 cells)
1 | Cc1sc2c(c1C)C(c1ccc(Cl)cc1)=N[C@@H](CC(=O)NCC(=O)NCCCCOc1cccc3c1C(=O)N(C1CCC(=O)NC1=O)C3=O)c1nnc(C)n1-2 (stereo partly drawn) [Compound 28, 2-((S)-4-(4-Chlorophenyl)-2,3,9-trimethyl-6H-thieno[3,2-f][1,2,4]triazolo[4,3-a][1,4]diazepin-6-yl)-N-(2-((4-((2-(2,6-dioxopiperidin-3-yl)-1,3-dioxoisoindolin-4-yl)oxy)butyl)amino)-2-oxoethyl)acetamide] | 48 (≈ 37.7 µg/mL) | 17 (≈ 13.3 µg/mL) | 231.9 to 232.6 °C (dec.) | – | – | – | – | – | – | – | – | –
2 | Cc1sc2c(c1C)C(c1ccc(Cl)cc1)=N[C@@H](CC(=O)N1CCN(CC(=O)NCCCCCOc3cccc4c3C(=O)N(C3CCC(=O)NC3=O)C4=O)CC1)c1nnc(C)n1-2 (stereo partly drawn) [Compound 34, 2-(4-(2-((S)-4-(4-Chlorophenyl)-2,3,9-trimethyl-6H-thieno[3,2-f][1,2,4]triazolo[4,3-a][1,4]diazepin-6-yl)acetyl)piperazin-1-yl)-N-(5-((2-(2,6-dioxopiperidin-3-yl)-1,3-dioxoisoindolin-4-yl)oxy)pentyl)acetamide] | 5070 (≈ 4410 µg/mL) | 11 (≈ 9.55 µg/mL) | 194.8 to 196.8 °C (dec.) | showed the well-known “hook effect” | abolish BRD4 degradation | decreased expression of BRD4 at all the time-points tested | 0.06 | 300 | – | – | – | –
3 | Cc1sc2c(c1C)C(c1ccc(Cl)cc1)=N[C@@H](CC(=O)N(C)CC(=O)NCCCCCOc1cccc3c1C(=O)N(C1CCC(=O)NC1=O)C3=O)c1nnc(C)n1-2 (stereo partly drawn) [Compound 24, 2-((S)-4-(4-Chlorophenyl)-2,3,9-trimethyl-6H-thieno[3,2-f][1,2,4]triazolo[4,3-a][1,4]diazepin-6-yl)-N-(2-((5-((2-(2,6-dioxopiperidin-3-yl)-1,3-dioxoisoindolin-4-yl)oxy)pentyl)amino)-2-oxoethyl)-N-methylacetamide] | – | – | 175.2 to 176.8 °C (dec.) | – | – | – | – | – | 82,6 % of control | 32,0 % of control | 64,9 % of control | 26,4 % of control
4 | Cc1sc2c(c1C)C(c1ccc(Cl)cc1)=N[C@@H](CC(=O)N1CCN(CC(=O)NCCOCCOc3cccc4c3C(=O)N(C3CCC(=O)NC3=O)C4=O)CC1)c1nnc(C)n1-2 (stereo partly drawn) [Compound 35, 2-(4-(2-((S)-4-(4-Chlorophenyl)-2,3,9-trimethyl-6H-thieno[3,2-f][1,2,4]triazolo[4,3-a][1,4]diazepin-6-yl)acetyl)piperazin-1-yl)-N-(2-(2-((2-(2,6-dioxopiperidin-3-yl)-1,3-dioxoisoindolin-4-yl)oxy)ethoxy)ethyl)acetamide] | – | – | 173.8 to 174.5 °C (dec.) | – | – | – | – | – | 107,8 % of control | 40,1 % of control | 39,2 % of control | 72,1 % of control
5 | Cc1ncsc1-c1ccc(CNC(=O)[C@@H]2C[C@@H](O)CN2C(=O)[C@@H](NC(=O)CNC(=O)CN2CCN(C(=O)C[C@@H]3N=C(c4ccc(Cl)cc4)c4c(sc(C)c4C)-n4c(C)nnc43)CC2)C(C)(C)C)cc1 [Compound 46, (2S,4R)-1-((S)-2-(2-(2-(4-(2-((S)-4-(4-Chlorophenyl)-2,3,9-trimethyl-6H-thieno[3,2-f][1,2,4]triazolo[4,3-a][1,4]diazepin-6-yl)acetyl)piperazin-1-yl)acetamido)acetamido)-3,3-dimethylbutanoyl)-4-hydroxy-N-(4-(4-methylthiazol-5-yl)benzyl)pyrrolidine-2-carboxamide] | – | – | 183.3 to 184.8 °C | – | – | – | – | – | 61,7 % of control | 135 % of control | – | –
6 | Cc1sc2c(c1C)C(c1ccc(Cl)cc1)=N[C@@H](CC(=O)NCC(=O)NCCOCCOc1cccc3c1C(=O)N(C1CCC(=O)NC1=O)C3=O)c1nnc(C)n1-2 (stereo partly drawn) [Compound 30, 2-((S)-4-(4-Chlorophenyl)-2,3,9-trimethyl-6H-thieno[3,2-f][1,2,4]triazolo[4,3-a][1,4]diazepin-6-yl)-N-(2-((2-(2-((2-(2,6-dioxopiperidin-3-yl)-1,3-dioxoisoindolin-4-yl)oxy)ethoxy)ethyl)amino)-2-oxoethyl)acetamide] | – | – | 224.4 to 226.6 °C (dec.) | – | – | modest and transitory degradation of BRD4 (at 8 and 16 h of treatment) | – | – | 48,3 % of control | 22,8 % of control | 36,8 % of control | 73,4 % of control
7 | Cc1ncsc1-c1ccc(CNC(=O)[C@@H]2C[C@@H](O)CN2C(=O)[C@@H](NC(=O)CNC(=O)CN(C)C(=O)C[C@@H]2N=C(c3ccc(Cl)cc3)c3c(sc(C)c3C)-n3c(C)nnc32)C(C)(C)C)cc1 [Compound 45, (2S,4R)-1-((S)-2-(2-(2-(2-((S)-4-(4-Chlorophenyl)-2,3,9-trimethyl-6H-thieno[3,2-f][1,2,4]triazolo[4,3-a][1,4]diazepin-6-yl)-N-methylacetamido)acetamido)acetamido)-3,3-dimethylbutanoyl)-4-hydroxy-N-(4-(4-methylthiazol-5-yl)benzyl)pyrrolidine-2-carboxamide] (JQ1acid-[Sar]G[Tle][Hyp]-{NHBn(4-(4-Me-thiazol-5-yl))}) | – | – | 114.6 to 116 °C | – | – | – | – | – | 41,6 % of control | 107,9 % of control | – | –
8 | Cc1sc2c(c1C)C(c1ccc(Cl)cc1)=N[C@@H](CC(=O)N(C)CC(=O)NCCCOc1cccc3c1C(=O)N(C1CCC(=O)NC1=O)C3=O)c1nnc(C)n1-2 (stereo partly drawn) [Compound 22, 2-((S)-4-(4-Chlorophenyl)-2,3,9-trimethyl-6H-thieno[3,2-f][1,2,4]triazolo[4,3-a][1,4]diazepin-6-yl)-N-(2-((3-((2-(2,6-dioxopiperidin-3-yl)-1,3-dioxoisoindolin-4-yl)oxy)propyl)amino)-2-oxoethyl)-N-methylacetamide] | – | – | 211.5 to 213.8 °C (dec.) | – | – | – | – | – | 69,5 % of control | 35,6 % of control | 116,7 % of control | 50,6 % of control
9 | Cc1sc2c(c1C)C(c1ccc(Cl)cc1)=N[C@@H](CC(=O)N(C)CC(=O)NCCCCOc1cccc3c1C(=O)N(C1CCC(=O)NC1=O)C3=O)c1nnc(C)n1-2 (stereo partly drawn) [Compound 23, 2-((S)-4-(4-Chlorophenyl)-2,3,9-trimethyl-6H-thieno[3,2-f][1,2,4]triazolo[4,3-a][1,4]diazepin-6-yl)-N-(2-((4-((2-(2,6-dioxopiperidin-3-yl)-1,3-dioxoisoindolin-4-yl)oxy)butyl)amino)-2-oxoethyl)-N-methylacetamide] | – | – | 190.5 to 192 °C (dec.) | – | – | – | – | – | 79,1 % of control | 35,3 % of control | 74,1 % of control | 28,2 % of control

From article PMC9706574, “A Versatile and Sustainable Multicomponent Platform for the Synthesis of Protein Degraders: Proof-of-Concept Application to BRD4-Degrading PROTACs” (Journal of Medicinal Chemistry, 2022)
